Results published in US20190297888A1, “FUNGICIDAL COMPOUNDS AND MIXTURES FOR FUNGAL CONTROL IN CEREALS” (Dow AgroSciences LLC, priority 2016, published 2019).

Legend:
Type in all cases: in vivo
[1] = system: Puccinia triticina (PUCCRT); assay: Field assessment of Compound I and fluxapyroxad on brown rust of wheat (AUDPC % control); settings: AUDPC-based, 5 field trials
Source text: (§1) Treatments consisting of the compound of Formula I and fungicide compound fluxapyroxad against fungal diseases of wheat were applied either using individually or as a two-way mixture of fluxapyroxad with the compound of Formula I. The compound of Formula I was applied with Agnique BP-420 (50% w/w at 0.3% v/v) at 50, 75 and 100 g ai/ha and Imtrex (Fluxapyroxad 62.5 g/L) was applied at 50, 75 and 100 g ai/ha. Commercial standards used in the studies were Adexar (epoxiconazole+fluxapyroxad—125 g/L), applied at 1.2 and 1.6 L pr/ha, and Elatus Era (benzovindiflupyr+prothioconazole—225 g/L), applied at 1.0 L pr/ha.
Fungicidal treatments containing the compound of Formula I and fluxapyroxad, either individually or as a two-way mixture, were assessed against brown rust of wheat (PUCCRT) in five separate field trials. In all trials, fungicidal treatments were applied at B34-51 growth stages of winter wheat (TRZAW; ATOUDUR, MIRADOUX, IRIDIUM or MV Vanek variety) under natural infection of brown rust (protectant tests, approximately 0-8% infection on leaf 3 or 4 at application). All treatments were part of an experimental trial designed as a randomized complete block with four replications and plot sizes of approximately 2×2 m to 2×7.5 m. Fungicidal treatments were applied at a water volume of 200 L/ha, using a backpack plot sprayer (BKPKAIR or BKPCENG) with a FLATFAN or AIRASST Nozzle pressurized at 210-250 kPa.
(§2) Disease severity (percentage of visual diseased foliage on whole plot or leaves) in five field trials was recorded following EPPO PP1/26 guideline prescriptions. Area under the disease progress curve (AUDPC) was calculated for each plot in […] trials using the sets of recorded severity data. Relative AUDPC (% control based on AUDPC) was calculated as percent of the nontreated control. Final results for the control of brown rust of wheat by the compound of Formula I, fluxapyroxad and mixtures are reported as an average of the relative AUDPC calculated over all five field trials. Statistical analysis was done according to ANOVA and Tukey's test (p=0.10).

[2] = system: Puccinia striiformis (PUCCST); assay: Field assessment of Compound I and fluxapyroxad on yellow rust of wheat (AUDPC % control); settings: AUDPC-based, 2 field trials
Source text: as §1
Fungicidal treatments containing the compound of Formula I and fluxapyroxad, either individually or as a two-way mixture, were assessed against yellow rust of wheat (PUCCST) in two separate field trials. In the first trial, fungicidal treatments were applied once at B37 (early curative, 6.5% infection at application on L3) growth stage of winter wheat (TRZAW, Fairplay variety). The treatments were part of an experimental trial designed as a randomized complete block with four replications and a plot of approximately 2×6 m. Treatments were applied at water volume of 200 L/ha, using a backpack plot sprayer (BKPCKAIR, FLATFANA nozzle) and pressurized at 300 kPa.
In the second trial, fungicidal treatments containing the compound of Formula I and fluxapyroxad, either individually or as a two-way mixture, were applied once at B33-37 (early curative, 0.5% infection on L2 at application) growth stages of wheat (TRZAW, SOLSTICE variety). The treatment was part of an experimental trial designed as a randomized complete block with four replications and a plot of approximately 1.5×14 m. Treatments were applied at water volume of 200 L/ha, using a backpack precision plot sprayer (BKCKAIR, FLAT FAN nozzle) and pressurized at 210 kPa.
as §2, with “both” for “five”, “yellow” for “brown”, “both” for “all five”

[3] = system: Rhyncosporium secalis (RHYNSE); assay: Field assessment of Compound I and fluxapyroxad on leaf scald of barley (AUDPC % control); settings: AUDPC-based, one field trial
Protocol: (§3) Commercial standards used in the studies were Proline 275 (275 g ai/L Prothioconazole), applied at 150 g ai/ha, and SiltraXpro (200 g ai/L prothioconazole+60 g ai/[…] bixafen), applied at 195 g ai/ha.
Fungicidal treatments containing the compound of Formula I and fluxapyroxad, either individually or as a two-way mixture, were assessed against scald of barley (RHYNSE) in one field trial. In the trial, fungicidal treatments were applied at B37-39 growth stages of winter barley (HORVW, Maris Otter variety) under natural infection of barley scald (protectant test, approximately 1% infection on leaf 4 at application). All treatments were part of an experimental trial designed as a randomized complete block with four replications.
(§4) Disease severity (percentage of visual diseased foliage on whole plot or leaves) in the field trial was recorded following EPPO PP1/26 guideline prescriptions. Area under the disease progress curve (AUDPC) was calculated for each plot in the trial using the sets of recorded severity data. Relative AUDPC (% control based on AUDPC) was calculated as percent of the nontreated control. […] Statistical analysis was done according to ANOVA and Tukey's test (p=0.10).

Puccinia hordei (PUCCHD) = assay: Field assessment of Compound I and fluxapyroxad on rust of barley (AUDPC % control); settings: AUDPC-based, 2 field trials
Protocol: as §3
Fungicidal treatments containing the compound of Formula I and fluxapyroxad, either individually or as a two-way mixture, were assessed against rust of barley (PUCCHD) in two separate field trials. In both trials, fungicidal treatments were applied at B37-39 growth stages of winter barley (Lomeritt variety) under natural infection of barley rust. All treatments were part of an experimental trial designed as a randomized complete block with four replications.
as §4, with “in […]” for “in the”, “field trials” for “field trial”, “in both trials” for “in the trial”

SMILES | PUCCRT % Control ([1]; rate 50 g ai/ha) [%] | PUCCRT % Control ([1]; rate 75 g ai/ha) [%] | PUCCRT % Control ([1]; rate 100 g ai/ha) [%] | PUCCST % Control ([2]; rate 50 g ai/ha) [%] | PUCCST % Control ([2]; rate 75 g ai/ha) [%] | PUCCST % Control ([2]; rate 100 g ai/ha) [%] | RHYNSE % Control ([3]; rate 75 g ai/ha) [%] | RHYNSE % Control ([3]; rate 100 g ai/ha) [%] | RHYNSE % Control ([3]; rate 150 g ai/ha) [%] | PUCCHD % Control (Puccinia hordei (PUCCHD); rate 75 g ai/ha) [%] | PUCCHD % Control (Puccinia hordei (PUCCHD); rate 100 g ai/ha) [%] | PUCCHD % Control (Puccinia hordei (PUCCHD); rate 150 g ai/ha) [%] | RHYNSE % Control ([3]; rate 45 g ai/ha) [%] | RHYNSE % Control ([3]; rate 62.5 g ai/ha) [%] | PUCCHD % Control (Puccinia hordei (PUCCHD); rate 45 g ai/ha) [%] | PUCCHD % Control (Puccinia hordei (PUCCHD); rate 62.5 g ai/ha) [%]
N#Cc1ccc(Oc2ccc(C(F)(F)C(O)(Cn3ncnc3S)c3ccc(F)cc3F)nc2)cc1 (stereo not drawn) [Compound I, 4-((6-(2-(2,4-difluorophenyl)-1,1-difluoro-2-hydroxy-3-(5-mercapto-1H-1,2,4-triazol-1-yl)propyl)pyridin-3-yl)oxy)benzonitrile] | 86.0 | 90.0 | 93.4 | 80.0 | 93.3 | 98.0 | 67.2 | 61.3 | 81.1 | 71.0 | 75.3 | 88.8 | – | – | – | –
Cn1cc(C(=O)Nc2ccccc2-c2cc(F)c(F)c(F)c2)c(C(F)F)n1 [Fluxapyroxad, 3-(difluoromethyl)-1-methyl-N-(3′,4′,5′-trifluorobiphenyl-2-yl)pyrazole-4-carboxamide] | 84.0 | 94.0 | 95.3 | 74.1 | 69.0 | 79.4 | – | 95.7 | – | – | 68.7 | – | 78.7 | 77.2 | 49.0 | 54.5
